Assays:
[1] = tested on: mice with microbead-elevated intraocular pressure
Experimental: Two groups of mice (N=3 each) were compared to determine the effect of a single intravitreal injection of brimonidine-laced nanoparticle relative to a single topical drop (eyedrop) of clinical-grade brimonidine. For each mouse, intraocular pressure (IOP) was acutely elevated by an injection (1 μl) of polystyrene microbeads into the anterior chamber of the eye. This induces a 35-40% elevation in IOP that persists for 3-4 weeks. […] IOP was tracked using TonoPen XL measurements until any lowering effect was dissipated.

[2] = tested on: human microvascular endothelial cells (HMEC); test: Internalization of FITC-dendrimer conjugates, temperature effect and controls; type: cell-based; conditions: 10 uM, 60 min, 37° C.
Experimental: Internalization of FD-1 and FD-2 in mammalian cells was assessed using two different cell lines and a previously described method [Futaki, S.; Nakase, I.; Suzuki, T.; Youjun, Y.; Sugiura, Y. Biochemistry 2002, 41, 7925.] with NIH-3T3 fibroblasts and HMEC (human microvascular endothelial cells) and a Zeiss LSM 510 confocal microscope. […] [Futaki, S.; Nakase, I.; Suzuki, T.; Youjun, Y.; Sugiura, Y. Biochemistry 2002, 41, 7925.; Vivès, E.; Brodin, P.; Lebleu, B. J. Biol. Chem. 1997, 272, 16010.] Furthermore, the extent of internalization increased in an incubation time-dependent manner, and it was observed that after just 10 min, the fluorescence intensity of cells treated with FD-2 was near saturation. […] L. Org. Lett. 2005, 7, 4815.] but also regulate the subcellular localization of the molecule and its putative cargo. […] Therefore, the dendrimer with a hexyl spacer crosses the cell membrane faster than the molecule with an ethyl chain. On the other hand, the localization patterns can also be controlled by the length of the spacer. FD-1 with the short spacer appeared to be localized everywhere in the cell, but highly concentrated in the nucleus. […] These translocation features of guanidinlyated dendritic scaffolds as carriers can be important for intracellular delivery of cargo molecules to specific subcellular compartments (e.g., cytosol or nucleus). […]

Compound	IOP one day after application ([1]; single application (1 μl) on day 4 after microbead injection)	time after administration at which IOP returned to elevated levels ([1]; single topical application (1 μl))	fluorescence of treated cells (control experiments) [2]
Brc1c(NC2=NCCN2)ccc2nccnc12 [topical brimonidine, 5-Bromo-N-(4,5-dihydro-1H-imidazol-2-yl)quinoxalin-6-amine]	normal levels	Six	–
fluorescein isothiocyanate [free FITC]	–	–	no

Source: patent publication US9856348B2, “Multifunctional degradable nanoparticles with control over size and functionalities” (Vanderbilt University, priority 2007, dated 2018)
